The values below come from patent US20170273985A1, “TRICYCLIC DERIVATIVE” (Sunovion Pharmaceuticals Inc., priority 2014, published 2017).

Where only a bound is given, the exact number is not on record here.

The target in the first assay is PDE1B (Homo sapiens, UniProt Q01064). Briefly: In vitro HTRF PDE1 inhibition assay (PDE1B). In kind it is biochemical. The conditions noted are these: Table 22. The source says: An exemplary procedure for the in vitro Homogenous Time Resolved Fluorescence assay, which can be used to determine the inhibitory action of compounds of the invention toward PDE1 or its isoforms, follows. The HTRF PDE1 assay utilized the HTRF (Homogenous Time Resolved Fluorescence) technology, which is based on the competition between unlabeled cyclic nucleotide and cyclic nucleotide labeled with XL665 for the binding to cyclic nucleotide-specific antibody labeled with cryptate. The HTRF signal is thus inversely proportional to the concentration of cyclic nucleotide being measured. Since phosphodiesterases break down cyclic nucleotides the HTRF signal was used to determine PDE activity. The Cisbio cGMP HTRF assay kit (Cat no: 62GM2PEC) was utilized. Cyclic GMP was diluted to 200 nM in HTRF assay buffer (1 mM CaCl2, 10 mM MgCl2, 10 mM Tris-HCl, 0.1% BSA, pH 7.4). 10 μl of compound or DMSO was diluted in 200 nM cyclic GMP solution and added to wells of a 96 well white plate to give 100 nM cyclic GMP in 1% DMSO final concentration. PDE (1A3, 1B or IC) was diluted to 2× working concentration in HTRF assay buffer with 2 μg/ml calmodulin, and 10 μl was added to initiate the reaction. The plate was then incubated for 45 minutes at 37° C. d2-Labelled cyclic GMP and anti-cGMP cryptate were diluted in 50 mM phosphate buffer, 0.8 M KF, 1% Triton X100, 0.2% BSA, pH 7.0. Following incubation 10 μl d2-cGMP, then 10 μl anti cGMP cryptate were added to each well and the plate was incubated for 45 minutes at room temperature. The plate was then read on Perkin Elmer Victor at 2 different FRET readings ex/emm 340 nm/665 nm and 340 nm/615 nm. Compounds having an IC50 of <1 μM, are denoted as +++. Compounds having an IC50 of 1−10 μM, are denoted as ++. Compounds having an IC50 of 10-100 μM, are denoted as +.
On the technique in general: TR-FRET usually uses a lanthanide donor and a delayed reading to cut background.
Usually IC50 stands for the midpoint of a concentration-inhibition curve. A high value points to a need for much substance. On to “2-(4-chlorophenyl)-8-isopropyl-2H-imidazo[1,5-f]oxazolo[2,3-c][1,2,4]triazin-5(3H)-one [Example 133]”, for which the 50% inhibitory concentration (IC50) is less than 1000 nM.
Same read-out and setting: the result for `CCCN1c2nn3c(C4CCOCC4)ncc3c(=O)n2CC1c1ccc(OC)cc1` (racemic) [Example 67] reads less than 1000 nM; that for `CN1c2nn3c(C4CCOCC4)ncc3c(=O)n2CC1c1ccc(Cl)cc1` (racemic) [Example 68], less than 1000 nM.
Take `CCc1ccc(C2Cn3c(nn4c(C(C)C)ncc4c3=O)N2CC)cn1` (single isomer, unassigned) [Example 94]: the 50% inhibitory concentration (IC50) was less than 1000 nM.
Same read-out and setting: in the case of `CC(C)c1ncc2c(=O)n3c(nn12)N(Cc1ccccc1)CCC3` [Example 2, 1-Benzyl-9-isopropyl-1,2,3,4-tetrahydro-6H-imidazo[5,1-f]pyrimido[2,1-c][1,2,4]triazin-6-one] it was less than 1000 nM; in that of `CC(C)c1ncc2c(=O)n3c(nn12)N(CC1CCOCC1)C(C)CC3` (centres unmarked) [Example 3, 11-Methyl-10-(oxan-4-ylmethyl)-6-(propan-2-yl)-1,5,7,8,10-pentaazatricyclo[7,4,0,0,3,7]trideca-3,5,8-trien-2-one], less than 1000 nM; in that of `CC(C)c1ncc2c(=O)n3c(nn12)N(CCC1CCOCC1)CC3` [Example 4], less than 1000 nM.
In the case of `CC(C)c1ncc2c(=O)n3c(nn12)N(CCCC1CCOCC1)CC3` [Example 5], the half-inhibitory concentration (IC50) is less than 1000 nM.
The same measure, in the same setting: the result for `COCCCN1CCn2c1nn1c(C(C)C)ncc1c2=O` [Example 6] reads less than 1000 nM.
As to `COCCCCN1CCn2c1nn1c(C(C)C)ncc1c2=O` [Example 7], the IC50 was less than 1000 nM.
Compound `COCCCCCN1CCn2c1nn1c(C(C)C)ncc1c2=O` [Example 8] had an IC50 of less than 1000 nM.
`CC(C)c1ncc2c(=O)n3c(nn12)N(CCc1ccccn1)CC3` [Example 10] yielded a 50% inhibitory concentration (IC50) of less than 1000 nM.
On the same count and under the same terms, the result for `CC(C)c1ncc2c(=O)n3c(nn12)N(CCCc1cccnc1)CC3` [Example 12] reads less than 1000 nM; that for `CC(C)c1ncc2c(=O)n3c(nn12)N(CCCc1ccncc1)CC3` [Example 13], less than 1000 nM; that for `CC(C)c1ncc2c(=O)n3c(nn12)N(C)CCC3` [Example 14], less than 1000 nM.
Consider `CCCN1CCCn2c1nn1c(C(C)C)ncc1c2=O` [Example 15], for which the 50% inhibitory concentration (IC50) was less than 1000 nM.
On the same count and under the same terms, in the case of `CCCCN1CCCn2c1nn1c(C(C)C)ncc1c2=O` [Example 17] it was less than 1000 nM; in that of `CCCCCN1CCCn2c1nn1c(C(C)C)ncc1c2=O` [Example 18], less than 1000 nM; in that of `CC(C)CCN1CCCn2c1nn1c(C(C)C)ncc1c2=O` [Example 19], less than 1000 nM.
The same measure, in the same setting: in the case of `CC(C)c1ncc2c(=O)n3c(nn12)N(CCC1CC1)CCC3` [Example 20] it was less than 1000 nM; in that of `CC(C)c1ncc2c(=O)n3c(nn12)N(CCC1CCC(F)(F)CC1)CCC3` [Example 21], less than 1000 nM.
Still for that read-out and setting: in the case of `CC(C)c1ncc2c(=O)n3c(nn12)N(CCOC(F)(F)F)CCC3` [Example 22] it was less than 1000 nM; in that of `COCCN1CCCn2c1nn1c(C(C)C)ncc1c2=O` [Example 23], less than 1000 nM; in that of `CC(C)c1ncc2c(=O)n3c(nn12)N(CCN1CCOCC1)CCC3` [Example 26], less than 1000 nM.
The compound `CC(C)c1ncc2c(=O)n3c(nn12)N(CCCN1CCOCC1)CCC3` [Example 27] registered an IC50 of less than 1000 nM.
Same read-out and setting: the result for `CC(C)c1ncc2c(=O)n3c(nn12)N(CC(=O)N1CCOCC1)CCC3` [Example 28] reads 1000 to 10000 nM; that for `CC(C)c1ncc2c(=O)n3c(nn12)N(CCCC1CCOCC1)CCC3` [Example 29], less than 1000 nM.
On the same count and under the same terms, in the case of `CC(C)c1ncc2c(=O)n3c(nn12)N(Cc1ccc(Cl)cc1)CCC3` [Example 31] it was less than 1000 nM; in that of `CC(C)c1ncc2c(=O)n3c(nn12)N(Cc1cccc(C(F)(F)F)c1)CCC3` [Example 32], less than 1000 nM.
Still for that read-out and setting: in the case of `CC(C)c1ncc2c(=O)n3c(nn12)N(Cc1cccc(Cl)c1)CCC3` [Example 33] it was less than 1000 nM.
For the compound `CC(C)c1ncc2c(=O)n3c(nn12)N(Cc1ccc(C(F)(F)F)cc1)CCC3` [Example 34], the IC50 is less than 1000 nM.
Still for that read-out and setting: in the case of `CC(C)c1ncc2c(=O)n3c(nn12)N(Cc1ccncc1)CCC3` [Example 35] it was less than 1000 nM.
As for `CC(C)c1ncc2c(=O)n3c(nn12)N(Cc1cccnc1)CCC3` [Example 36], the IC50 was less than 1000 nM.
On the same count and under the same terms, in the case of `CC(C)c1ncc2c(=O)n3c(nn12)N(Cc1cccc(C#N)c1)CCC3` [Example 37] it was less than 1000 nM; in that of `CC(C)c1ncc2c(=O)n3c(nn12)N(CCc1ccc(C#N)cc1)CCC3` [Example 38], less than 1000 nM; in that of `CC(C)c1ncc2c(=O)n3c(nn12)N(CCCc1ccncc1)CCC3` [Example 39], less than 1000 nM.
In turn, `CC(C)c1ncc2c(=O)n3c(nn12)N(CCCc1cccnc1)CCC3` [Example 40] showed an IC50 of less than 1000 nM.
The compound `CC(C)c1ncc2c(=O)n3c(nn12)N(CCc1ccncc1)CCC3` [Example 41] returned an IC50 of less than 1000 nM.
Consider `CC(C)c1ncc2c(=O)n3c(nn12)N(CCc1cccnc1)CCC3` [Example 42], for which the IC50 is less than 1000 nM.
The same measure, in the same setting: the result for `CC(C)c1ncc2c(=O)n3c(nn12)N(CCc1ccccc1F)CCC3` [Example 43] reads less than 1000 nM; that for `CC(C)c1ncc2c(=O)n3c(nn12)N(CCc1cccc(F)c1)CCC3` [Example 44], less than 1000 nM; that for `CC(C)c1ncc2c(=O)n3c(nn12)N(CCc1ccc(F)cc1)CCC3` [Example 45], less than 1000 nM.
The same measure, in the same setting: the result for `CC(C)c1ncc2c(=O)n3c(nn12)N(CCCc1ccccc1F)CCC3` [Example 46] reads less than 1000 nM; that for `CC(C)c1ncc2c(=O)n3c(nn12)N(CCCc1ccc(F)cc1)CCC3` [Example 47], less than 1000 nM; that for `COc1ccccc1CCCN1CCCn2c1nn1c(C(C)C)ncc1c2=O` [Example 48], less than 1000 nM.
The compound `COc1cccc(CCCN2CCCn3c2nn2c(C(C)C)ncc2c3=O)c1` [Example 49] registered a half-maximal inhibitory concentration (IC50) of less than 1000 nM.
The same measure, in the same setting: in the case of `COc1ccc(CCCN2CCCn3c2nn2c(C(C)C)ncc2c3=O)cc1` [Example 50] it was 1000 to 10000 nM; in that of `CC(C)c1ncc2c(=O)n3c(nn12)N(CC1CCOCC1)CCCC3` [Example 51], less than 1000 nM; in that of `CC(C)c1ncc2c(=O)n3c(nn12)N(Cc1ccc(C#N)cc1)CCCC3` [Example 52], less than 1000 nM.
On to `CCCCN1CCn2c1nn1c(C3CCOCC3)ncc1c2=O` [Example 53], for which the concentration for half-maximal inhibition (IC50) is less than 1000 nM.
Consider `O=c1c2cnc(C3CCOCC3)n2nc2n1CCN2CCC1CCCC1` [Example 54], for which the concentration for half-maximal inhibition (IC50) was less than 1000 nM.
On the same count and under the same terms, in the case of `O=c1c2cnc(C3CCOCC3)n2nc2n1CCN2CCc1ccc(F)cc1` [Example 57] it was less than 1000 nM; in that of `N#Cc1ccc(CCN2CCn3c2nn2c(C4CCOCC4)ncc2c3=O)cc1` [Example 58], less than 1000 nM.
Same read-out and setting: the result for `N#Cc1cccc(CN2CCCn3c2nn2c(C4CCOCC4)ncc2c3=O)c1` [Example 60] reads less than 1000 nM; that for `N#Cc1ccc(CN2CCCn3c2nn2c(C4CCOCC4)ncc2c3=O)cc1` [Example 61], 1000 to 10000 nM.
Still for that read-out and setting: the result for `O=c1c2cnc(C3CCOCC3)n2nc2n1CCCN2CCc1ccccc1` [Example 62] reads less than 1000 nM; that for `O=c1c2cnc(C3CCOCC3)n2nc2n1CCCN2CCCc1ccccc1` [Example 63], less than 1000 nM.
The compound `CC1CN(Cc2ccc(C#N)cc2)c2nn3c(C(C)C)ncc3c(=O)n2C1` (centres unmarked) [Example 65] returned an IC50 of less than 1000 nM.
`CCCN1c2nn3c(C4CCOCC4)ncc3c(=O)n2CC[C@@H]1c1ccc(Cl)cc1` [Example 71] registered a 50% inhibitory concentration (IC50) of less than 1000 nM.
`CC(C)c1ncc2c(=O)n3c(nn12)N(C)C(c1ccc(Cl)cc1)CC3` (centres unmarked) [Example 72] came in with an IC50 of less than 1000 nM.
The same measure, in the same setting: in the case of `CC(C)n1ncc2c(=O)n3c(nc21)N(CC1CCOCC1)CC3` [Example 73] it was less than 1000 nM; in that of `CC(C)n1ncc2c(=O)n3c(nc21)N(Cc1ccc(C#N)cc1)CC3` [Example 74], less than 1000 nM; in that of `CC(C)n1ncc2c(=O)n3c(nc21)N(Cc1ccc(-c2cccc(F)n2)cc1)CC3` [Example 76], less than 1000 nM.
Still for that read-out and setting: the result for `CC(C)CN1CCCn2c1nc1c(cnn1C(C)C)c2=O` [Example 77] reads less than 1000 nM; that for `CC(C)n1ncc2c(=O)n3c(nc21)N(Cc1ccc(C(F)(F)F)cc1)CCC3` [Example 80], less than 1000 nM; that for `CC(C)c1ncnc2c(=O)n3c(nc12)N(Cc1ccc(C#N)cc1)CC3` [Example 82], less than 1000 nM.
Same read-out and setting: the result for `CC(C)c1ncnc2c(=O)n3c(nc12)N(Cc1ccc(C(F)(F)F)cc1)CC3` [Example 83] reads less than 1000 nM.

The assay is the same for the next values; noted with them: Table 25.
Consider `O=c1c2cnc(C3CCOCC3)n2nc2n1CCN2CC1CC1(F)F` (racemic) [Example 176], for which the concentration for half-maximal inhibition (IC50) was less than 1000 nM.
